{"source": "patent US20220175761A1", "about": "“BI-LIGAND DRUG CONJUGATE AND USE THEREOF” (COHERENT BIOPHARMA (SUZHOU), LIMITED, priority 2019, published 2022)", "key": {"[1]": {"test_system": "KB, LNCaP, T-47D, RT4 and NCI-H460 tumor cell lines", "experiment": "Inhibition of tumor cell expansion, CCK8 (CB-10S)", "format": "cell-based, human", "experimental": "Cell lines: KB human oral epidermoid carcinoma cells, NCI-H460 human lung cancer cells, RT4 human bladder cancer cells, T-47D human breast cancer cells and LNcap human prostate cancer cells\nThe cells were prepared in advance, digested with trypsin, collected and counted; with a complete cell culture medium, KB cells were diluted to 3.5×10^4 cells/ml, LNCaP cells were diluted to 8.0×10^4 cells/ml, T-47D cells were diluted to 1.2×10^4 cells/ml, NCI-H460 cells were diluted to 2.5×10^4 cells/ml, and RT4 cells were diluted to 1.2×10^4 cells/ml; to each well of 96-well plates, 100 μl of the diluted cell solution was added; and negative control and blank control wells were set on each plate. The 96-well plates added with the cells were placed in an incubator at 37° C., 5% CO2 for culturing overnight.\nThe samples were diluted with a culture medium to desired concentrations (see Table 12). […]\n(§1) To each well, 15 μl (10% of the liquid volume in a well) of a color developing solution from CCK-8 was added; the plates were incubated at 37° C. for an appropriate time (try to keep the OD value in the range of 1.0-2.0); the covers of the 96-well plates were removed, and the plates were read at 450 nm on a microplate reader (Molecular Devices Spectra MAX Plus). […]"}, "[2]": {"test_system": "KB, T-47D, NCI-H460, CALU-3, HuH-7, and LNCaP tumor cell lines", "experiment": "Inhibition of tumor cell expansion, CCK8 (CB-60SK)", "format": "cell-based, human", "experimental": "(§2) Cell lines: KB human oral epidermoid carcinoma cells, T-47D human breast cancer cells, NCI-H460 human lung cancer cells, CALU-3 human lung adenocarcinoma cells, HuH-7 human liver cancer cells and LNCaP human prostate cancer cells\n(§3) The cells were prepared in advance, digested with trypsin, collected and counted; with a complete cell culture medium, KB cells were diluted to 2.5×10^4 cells/ml, T-47D cells were diluted to 1.3×10^4 cells/ml, NCI-H460 cells were diluted to 3.5×10^4 cells/ml, CALU-3 cells were diluted to 4.0×10^4 cells/ml, HuH-7 cells were diluted to 3.0×10^4 cells/ml, and LNCaP cells were diluted to 8.0×10^4 cells/ml; 100 μl of the diluted cell solution was added to each well; and negative control and blank control wells were set on each plate. The 96-well plates added with the cells were placed in an incubator at 37° C., 5% CO2 for culturing overnight.\nThe samples were diluted with a culture medium to desired concentrations (see Table 14). […]\nas §1"}, "[3]": {"test_system": "KB, T-47D, NCI-H460, CALU-3, HuH-7, and LNCaP tumor cell lines", "experiment": "Inhibition of tumor cell expansion, CCK8 (CB-60S)", "format": "cell-based, human", "experimental": "as §2\nas §3, with “2.0×10^4” for “2.5×10^4”, “1.5×10^4” for “1.3×10^4”, “2.0×10^4” for “3.5×10^4”, “3.0×10^4” for “4.0×10^4”, “4.0×10^4” for “3.0×10^4”, “well of 96-well plates;” for “well;”\nThe samples were diluted with a culture medium to desired concentrations (see Table 13). […]\nas §1"}, "[4]": {"test_system": "22RV1 (human prostate cancer cells)", "experiment": "Inhibition of cell line proliferation, CCK8", "format": "cell-based", "text": "(§4) Since different cells have different sensitivity to a cell proliferation inhibitory toxicity of the payload in a ligand conjugate, the quantitative analysis may be interfered occasionally. A series of cell lines with known expression levels of receptors of different ligands were selected and tested for the response to inhibitory effects of the cell proliferation of a ligand conjugate and a single payload. The IC50 ratio of a single payload to that of a ligand conjugate in same cell line were taken to remove such interference.\n(§5) Experimental operations: LNCaP and 22RV1 cells were prepared in advance, counted, and plated in 96-well cell culture plates at a cell density of 4×10^4 cells/ml and 2.0×10^4 cells/ml, respectively (100 μl/well); negative control and blank control wells were set on each plate. After adherent cell culture overnight, the diluted samples to be tested were added at 50 μl/well. The plates were placed in an incubator at 37° C., 5% CO2 and cultured for 68-72 hours. To each well, 15 μl (10% of the liquid volume in a well) of a color developing solution from CCK8 was added; and the plates were incubated at 37° C. for 45-70 minutes and each plate was read at 450 nm on a microplate reader. The data was edited using SoftMax Pro and a 4-P fitting curve was plotted."}, "[5]": {"test_system": "LNCaP (human prostate cancer cells)", "experiment": "Inhibition of cell line proliferation, CCK8", "format": "cell-based", "text": "as §4\nas §5, with “plotted. […]” for “plotted.”"}, "[6]": {"target": "T1, FOLR1 (Homo sapiens, UniProt P15328)", "T1 construct": "purchased R&D System 5646-FR", "T1 sequence (P15328 25-233 limits assumed)": "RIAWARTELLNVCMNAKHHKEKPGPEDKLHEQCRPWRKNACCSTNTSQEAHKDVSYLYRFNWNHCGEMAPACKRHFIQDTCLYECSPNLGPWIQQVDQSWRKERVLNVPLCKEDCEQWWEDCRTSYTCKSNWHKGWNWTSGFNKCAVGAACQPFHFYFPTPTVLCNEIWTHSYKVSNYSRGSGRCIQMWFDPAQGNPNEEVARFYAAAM", "experiment": "BIAcore T200 binding affinity to FOLR1 (CM5 chip conjugated with FOLR1)", "text": "Buffer: HBS-EP+ buffer 10× (GE, Cat #: BR100669), diluted 10 folds with deionized water before use.\nIn the experiment, CM5 chip was conjugated with ligand FOLR1 (R&D System, Cat #: 5646-FR)."}, "[7]": {"target": "FOLH1 (Homo sapiens, UniProt Q04609)", "sequence (Q04609 44-750 limits assumed)": "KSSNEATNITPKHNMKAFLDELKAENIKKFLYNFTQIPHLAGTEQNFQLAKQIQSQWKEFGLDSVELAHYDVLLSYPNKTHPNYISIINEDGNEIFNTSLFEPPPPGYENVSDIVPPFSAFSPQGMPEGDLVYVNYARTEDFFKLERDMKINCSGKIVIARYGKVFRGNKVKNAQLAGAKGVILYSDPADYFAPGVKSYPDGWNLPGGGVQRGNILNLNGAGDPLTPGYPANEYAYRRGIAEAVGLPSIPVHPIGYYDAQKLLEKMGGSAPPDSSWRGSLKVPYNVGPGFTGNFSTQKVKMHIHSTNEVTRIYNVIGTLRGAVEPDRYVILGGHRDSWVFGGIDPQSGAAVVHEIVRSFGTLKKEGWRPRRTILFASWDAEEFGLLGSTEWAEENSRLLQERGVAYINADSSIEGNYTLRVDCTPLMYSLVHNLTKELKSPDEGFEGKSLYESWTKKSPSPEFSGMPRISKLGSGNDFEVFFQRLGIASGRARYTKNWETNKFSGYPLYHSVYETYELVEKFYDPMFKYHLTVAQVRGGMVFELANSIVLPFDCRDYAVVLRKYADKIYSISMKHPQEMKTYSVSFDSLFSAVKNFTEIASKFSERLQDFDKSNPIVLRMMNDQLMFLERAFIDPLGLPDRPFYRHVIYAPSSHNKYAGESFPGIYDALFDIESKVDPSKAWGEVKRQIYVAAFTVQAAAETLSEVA", "sequence (P15328 25-233 partner limits assumed)": "as the sequence (P15328 25-233 limits assumed) above", "experiment": "BIAcore T200: binding of FOLH1 to compound-FOLR1 complex", "parameters": "purchased Sino Biologicals (FOLH1); R&D System (FOLR1) 15877-H07H (FOLH1); 5646-FR (FOLR1)", "text": "CM5 chip was conjugated with a ligand: FOLR1 (R&D System, Cat #: 5646-FR)\nAnalyte: CB-20BK, FA-MMAE and FOLH1 (Sino Biologicals, Cat #: 15877-H07H)\nAccording to BIAcore T200 (GE) operating manual, FOLR1 was conjugated to the CM5 chip; CB-20BK or FA-MMAE was loaded first, and then FOLH1 was loaded; and the binding of FOLH1 to the CB-20BK-FOLR1 complex was detected."}}, "note": "Numbered stars: 1 amine (or outer) side, 2 acyl side, 3 side chain; on linkers, the order of the positions; unused ones are H or OH. Square brackets hold non-standard residues; d marks the D form. Peptide text beside a SMILES is read from it. * marks the point of attachment. ξ: configuration not given here. X6 = CCc1c2c(nc3ccc(O)cc13)-c1cc3c(c(=O)n1C2)COC(=O)[C@@]3(CC)OC(=O)OCc1ccc(NC(=O)COCC(=O)NCCOCCOCCOCCOCCOCCn2nncc2CNC(=O)CCCCCN2C(=O)CC(*)C2=O)cc1; Pteroyl = Nc1nc2ncc(CNc3ccc(C(=O)*)cc3)nc2c(=O)[nH]1; γGlu = O=C(O)[C@H](CCC(=O)[*:2])N[*:1]; ξV = CC(C)C(N)C(=O)O", "data": [{"smiles": "CCc1c2c(nc3ccc(O)cc13)-c1cc3c(c(=O)n1C2)COC(=O)[C@@]3(CC)OC(=O)OCc1ccc(NC(=O)COCC(=O)NCCOCCOCCOCCOCCOCCn2nncc2CNC(=O)CCCCCN2C(=O)CC(SC[C@H](NC(=O)CC[C@H](NC(=O)c3ccc(NCc4cnc5[nH]c(N)nc(=O)c5n4)cc3)C(=O)O)C(=O)N[C@@H](CCCCN)C(=O)N[C@@H](CCC(=O)O)C(=O)N[C@@H](Cc3ccccc3)C(=O)N[C@@H](CC(C)C)C(=O)N[C@@H](Cc3cnc[nH]3)C(=O)N3CCC[C@H]3C(=O)N[C@@H](CO)C(=O)N[C@@H](CCCCN)C(=O)NC(C(=O)N[C@@H](CC(=O)O)C(=O)N[C@@H](CC(C)C)C(=O)N3CCC[C@H]3C(=O)N[C@@H](CCCNC(=N)N)C(=O)O)C(C)C)C2=O)cc1", "note": "(stereo partly drawn) [CB-10S] ({Pteroyl-γGlu}-C(X6)KEFLHPSK[ξV]DLPR-OH)", "values": [{"measurement": "inhibitory effect on growth and expansion of tumor cell lines", "setting": "[1]; 72 hours, CCK-8", "result": "has an inhibitory effect"}, {"measurement": "IC50 compared between cell lines", "setting": "[1]; KB, LNcap, T-47D and RT4 versus NCI-H460", "result": "significantly lower"}]}, {"smiles": "CCc1c2c(nc3ccc(O)cc13)-c1cc3c(c(=O)n1C2)COC(=O)[C@@]3(CC)OC(=O)OCc1ccc(NC(=O)[C@H](CCCNC(N)=O)NC(=O)COCC(=O)NCCOCCOCCOCCOCCOCCn2cc(C[C@H](NC(=O)[C@H](CCCCN)NC(=O)[C@H](CC(=O)O)NC(=O)[C@H](CC(=O)O)NC(=O)Cc3ccc(CNC(=O)NCCCC[C@H](NC(=O)N[C@@H](CCC(=O)O)C(=O)O)C(=O)O)cc3)C(=O)N[C@@H](CCCCNC(=O)CC[C@H](NC(=O)c3ccc(NCc4cnc5[nH]c(N)nc(=O)c5n4)cc3)C(=O)O)C(N)=O)nn2)cc1", "note": "[CB-60SK]", "values": [{"measurement": "inhibitory effect on growth and expansion of tumor cell lines", "setting": "[2]; 72 hours, CCK-8", "result": "has an inhibitory effect"}, {"measurement": "IC50 compared between cell lines", "setting": "[2]; LNCaP and HuH-7 versus T-47D, NCI-H460, CALU-3 and KB", "result": "significantly lower"}]}, {"smiles": "CCc1c2c(nc3ccc(O)cc13)-c1cc3c(c(=O)n1C2)COC(=O)[C@@]3(CC)OC(=O)OCc1ccc(NC(=O)[C@H](CCCNC(N)=O)NC(=O)COCC(=O)NCCOCCOCCOCCOCCOCCn2cc(C[C@H](NC(=O)[C@H](CC(=O)O)NC(=O)[C@H](CC(=O)O)NC(=O)Cc3ccc(CNC(=O)NCCCC[C@H](NC(=O)N[C@@H](CCC(=O)O)C(=O)O)C(=O)O)cc3)C(=O)N[C@@H](CCCCNC(=O)CC[C@H](NC(=O)c3ccc(NCc4cnc5[nH]c(N)nc(=O)c5n4)cc3)C(=O)O)C(N)=O)nn2)cc1", "note": "[CB-60S]", "values": [{"measurement": "inhibitory effect on growth and expansion of tumor cell lines", "setting": "[3]; 72 hours, CCK-8", "result": "has an inhibitory effect"}, {"measurement": "IC50 compared between cell lines", "setting": "[3]; LNCaP and HuH-7 versus NCI-H460, KB, T-47D and CALU-3", "result": "significantly lower"}]}, {"smiles": "CC[C@@]1(O)C(=O)OCc2c1cc1n(c2=O)Cc2c-1nc1cc(F)c(C)c3c1c2[C@@H](NC(=O)COCNC(=O)CNC(=O)[C@H](Cc1ccccc1)NC(=O)CNC(=O)CNC(=O)CCCCCN1C(=O)CC(SC[C@H](NC(=O)CC[C@H](NC(=O)c2ccc(NCc4cnc5[nH]c(N)nc(=O)c5n4)cc2)C(=O)O)C(=O)N[C@@H](CCCCN)C(N)=O)C1=O)CC3", "note": "(stereo partly drawn) [FA-MMAE, reference compound]", "values": [{"measurement": "IC50 ratio (MMAE/conjugate)", "setting": "[4]; 22RV1", "result": 0.006}, {"measurement": "IC50", "setting": "[4]; 22RV1, 68-72 hours, CCK8", "result": 1010, "unit": "nM"}, {"measurement": "IC50 ratio (MMAE/conjugate)", "setting": "[5]; LNCaP", "result": 0.010}, {"measurement": "IC50 ratio in LNCaP relative to IC50 ratio in 22RV1 (times higher / factor)", "setting": "[5]; LNCaP versus 22RV1", "result": 1.5}, {"measurement": "IC50", "setting": "[5]; LNCaP, 68-72 hours, CCK8", "result": 264, "unit": "nM"}, {"measurement": "kd", "setting": "[6]; FOLR1 on CM5 chip, N/D = no specific binding was detected", "result": 0.000115, "unit": "s⁻¹"}, {"measurement": "kon", "setting": "[6]; read-out: ka", "result": "1.79e+06", "unit": "M⁻¹ s⁻¹"}, {"measurement": "Binding of compound-FOLR1 complex to FOLH1 solution", "setting": "[7]; FOLH1 concentration 0.0625 μM", "result": "−1", "unit": "RU"}, {"measurement": "Binding of compound-FOLR1 complex to FOLH1 solution", "setting": "[7]; FOLH1 concentration 0.125 μM", "result": 4.2, "unit": "RU"}, {"measurement": "Binding of compound-FOLR1 complex to FOLH1 solution", "setting": "[7]; FOLH1 concentration 0.25 μM", "result": 8.4, "unit": "RU"}, {"measurement": "Binding of compound-FOLR1 complex to FOLH1 solution", "setting": "[7]; FOLH1 concentration 0.5 μM", "result": 9.8, "unit": "RU"}, {"measurement": "amount of FOLH1 bound to compound-FOLR1 complex (in words)", "setting": "[7]; FOLH1 solution at a high concentration", "result": "tends to saturate at a high concentration"}]}]}
